Tests used:
Type in all cases: cell-based
A431 (EGFR_WT) = target: T1, A431 (EGFR_WT) (Homo sapiens, UniProt P00533); assay: EGFR degradation assay (western blot), A431 cells; conditions: compounds 24 h, western blot, read-out: A431 DC50
T1 construct: endogenous in cells; host or cells: A431, NCI-H2073, NCI-H292
Experimental: (§1) A431 (EGFR_WT), NCl-H2073 (EGFR_WT), NCl-H292 (EGFR_WT), BaF3_YVAM (Her2_A775insYVAM), BaF3_SVD (EGFR_D770insSVD), BaF3_ASV (EGFR_A776inASV), or BaF3_DTC (EGFR_Exon19del/T790M/C797S) cells were seeded in a 24-well plate at a density of 4×10^5 cells per well for EGFR WT cells and 8× cells per well for EGFR or Her2 mutant cells, and the plates were incubated overnight. The cells were treated with the desired compounds for 24 h. The culture medium was removed, and 100 μL of RIPA buffer (Beyotime, P0013B) containing 1% Protease Inhibitor Cocktail (Bimake, B14001), 1% Phosphatase Inhibitor Cocktail 2 (Sigma, P5726), and 1% Phosphatase Inhibitor Cocktail 3 (Sigma, P0044) were added to lyse the cells. Then, the cell lysates were transferred to 1.5 mL microcentrifuge tubes and centrifuged at 12,000 rpm and 4° C. for 30 min. The supernatants were transferred into new tubes, and the protein concentration was determined using the BCA protein quantification method. All samples were diluted to the same concentration using RIPA buffer, loading buffer was added, samples were denatured, and 15 μg of protein per lane was loaded onto a SurePAGE 4-20% Bis-Tris gel. Samples were separated via electrophoresis in MOPS running buffer at 180 V for 100 min. Then, proteins were transferred onto PVDF membranes using the MiniBlot™ Electrophoretic Transfer Cell Device (Beyotime, E6050). The membrane was blocked using block buffer (LI-COR 927-60001) to prevent non-specific binding. The membrane was incubated with primary antibodies (1:500 dilution, EGFR-CST4405, 1:2000 dilution, Tubulin-ABclonal #AC021) at 4° C. overnight. The membrane was washed three times with 1× TBST buffer for 15 min each. The membrane was incubated with secondary antibodies IRDye 680RD Goat anti-Rabbit IgG Secondary Antibody (1:2000 dilution, LI-COR 926-68071) and IRDye 800CW Goat anti-Mouse IgG Secondary Antibody (1:2000 dilution, LI-COR 926-32210). Finally, the membrane was washed again with 1× TBST buffer 3 times. Fluorescence was detected using the Odyssey CLx Imaging System, and the data were analyzed with Empiria Studio Software and GraphPad Prism 9. Table 4 and Table 5 list the degradation results, where the degradation potency is represented by DC50, the concentration of compounds to cause the degradation of 50% of the corresponding proteins. FIGS. 45-49 show western blots illustrating the EGFR degradative activity of exemplary Compound of the present disclosure and a comparator Compound A in different cell lines 24 h after administration. The Compound referred herein as Compound A is disclosed in WO 2022/171123 A1 (see, compound 133, page 46; published Aug. 18, 2022). WO 2022/171123 A1 discloses phosphine oxide derived molecules with EGFR degradation activity.

[1] = tested on: BaF3_DTC (EGFR_Exon19del/T790M/C797S); assay: EGFR degradation assay (western blot), BaF3_DTC cells; conditions: BaF3_DTC cells (EGFR_Exon19del/T790M/C797S), compounds 24 h, western blot; read-out: BaF3_DTC DC50
Experimental: as §1

[2] = target: T2, BaF3_ASV (EGFR_A776inASV) (Homo sapiens, UniProt P00533, DUP767-769); assay: EGFR degradation assay (western blot), BaF3_ASV cells; conditions: BaF3_ASV cells, compounds 24 h, western blot; read-out: BaF3_ASV DC50
T2 construct: expressed in transfected cells; host or cells: Ba/F3 (engineered)
Experimental: as §1

A431 = assay: Cell growth inhibition assay (CellTiter-Glo), A431; conditions: Homo sapiens, A-431, 72 h, Table 6; A431 cells, three days, CellTiter-Glo; read-out: A431 GI50
Experimental: (§2) Cells were seeded in a 96-well plate (Corning 3610) with 90 μL of culture medium per well, and plates were incubated at 37° C. overnight. A 1,000× DMSO stock solution of the desired compound was prepared the following day. A compound dilution plate was prepared by diluting the stock solution 1:100 in the corresponding cell culture medium, 10 μL of the diluted compound solution was added to each 96-well plate well containing the seeded cells. […] The content of the wells was mixed by shaking continuously for 10 min, and luminescence was measured using Envision (PerkinElmer). The data were analyzed with GraphPad Prism 9 (see FIG. 50).
(§3) Table 6, Table 7, and Table 8 list the cell growth inhibition results, where Gls0 represents the compound concentration to cause 50% cell growth inhibition in comparison with DMSO.

BaF3_DTC = assay: Cell growth inhibition assay (CellTiter-Glo), BaF3_DTC; conditions: 72 h; Table 6; BaF3_DTC cells, three days, CellTiter-Glo; read-out: BaF3_DTC GI50
Experimental: as §2, §3

BaF3_ASV = assay: Cell growth inhibition assay (CellTiter-Glo), BaF3_ASV; conditions: 72 h; Table 6; BaF3_ASV cells, three days, CellTiter-Glo; read-out: BaF3_ASV GI50
Experimental: as §2, §3

T2 sequence (P00533 with tags, fused parts or gaps DUP767-769): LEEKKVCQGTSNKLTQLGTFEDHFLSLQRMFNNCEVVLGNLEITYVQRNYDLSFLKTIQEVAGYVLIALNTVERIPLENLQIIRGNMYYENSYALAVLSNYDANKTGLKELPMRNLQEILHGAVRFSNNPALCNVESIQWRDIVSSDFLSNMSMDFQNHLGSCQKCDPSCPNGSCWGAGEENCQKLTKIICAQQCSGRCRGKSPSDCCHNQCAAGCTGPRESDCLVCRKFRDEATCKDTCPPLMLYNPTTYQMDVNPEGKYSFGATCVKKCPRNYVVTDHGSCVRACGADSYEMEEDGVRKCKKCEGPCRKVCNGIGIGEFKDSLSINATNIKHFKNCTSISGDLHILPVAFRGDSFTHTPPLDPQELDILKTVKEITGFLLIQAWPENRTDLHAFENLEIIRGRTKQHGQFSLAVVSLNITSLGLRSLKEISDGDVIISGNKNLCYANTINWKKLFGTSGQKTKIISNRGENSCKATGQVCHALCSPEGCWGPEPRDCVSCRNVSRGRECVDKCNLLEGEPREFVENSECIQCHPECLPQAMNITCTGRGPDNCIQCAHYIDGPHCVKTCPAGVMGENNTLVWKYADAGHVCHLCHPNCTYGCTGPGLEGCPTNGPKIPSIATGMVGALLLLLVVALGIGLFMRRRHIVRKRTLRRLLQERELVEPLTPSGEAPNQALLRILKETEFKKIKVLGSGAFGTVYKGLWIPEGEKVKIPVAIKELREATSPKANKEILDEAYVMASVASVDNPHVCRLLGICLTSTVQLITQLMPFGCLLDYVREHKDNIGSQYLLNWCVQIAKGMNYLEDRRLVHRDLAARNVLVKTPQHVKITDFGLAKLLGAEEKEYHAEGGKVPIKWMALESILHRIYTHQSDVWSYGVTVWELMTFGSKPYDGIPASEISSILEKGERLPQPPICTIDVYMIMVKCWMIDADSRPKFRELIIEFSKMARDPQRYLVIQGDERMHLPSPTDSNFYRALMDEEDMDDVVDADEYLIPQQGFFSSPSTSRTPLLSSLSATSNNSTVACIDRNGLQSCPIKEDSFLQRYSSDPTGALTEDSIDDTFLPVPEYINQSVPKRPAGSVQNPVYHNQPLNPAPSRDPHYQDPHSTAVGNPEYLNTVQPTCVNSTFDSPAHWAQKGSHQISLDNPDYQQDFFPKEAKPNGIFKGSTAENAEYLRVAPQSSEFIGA
T1 sequence (P00533 25-1210): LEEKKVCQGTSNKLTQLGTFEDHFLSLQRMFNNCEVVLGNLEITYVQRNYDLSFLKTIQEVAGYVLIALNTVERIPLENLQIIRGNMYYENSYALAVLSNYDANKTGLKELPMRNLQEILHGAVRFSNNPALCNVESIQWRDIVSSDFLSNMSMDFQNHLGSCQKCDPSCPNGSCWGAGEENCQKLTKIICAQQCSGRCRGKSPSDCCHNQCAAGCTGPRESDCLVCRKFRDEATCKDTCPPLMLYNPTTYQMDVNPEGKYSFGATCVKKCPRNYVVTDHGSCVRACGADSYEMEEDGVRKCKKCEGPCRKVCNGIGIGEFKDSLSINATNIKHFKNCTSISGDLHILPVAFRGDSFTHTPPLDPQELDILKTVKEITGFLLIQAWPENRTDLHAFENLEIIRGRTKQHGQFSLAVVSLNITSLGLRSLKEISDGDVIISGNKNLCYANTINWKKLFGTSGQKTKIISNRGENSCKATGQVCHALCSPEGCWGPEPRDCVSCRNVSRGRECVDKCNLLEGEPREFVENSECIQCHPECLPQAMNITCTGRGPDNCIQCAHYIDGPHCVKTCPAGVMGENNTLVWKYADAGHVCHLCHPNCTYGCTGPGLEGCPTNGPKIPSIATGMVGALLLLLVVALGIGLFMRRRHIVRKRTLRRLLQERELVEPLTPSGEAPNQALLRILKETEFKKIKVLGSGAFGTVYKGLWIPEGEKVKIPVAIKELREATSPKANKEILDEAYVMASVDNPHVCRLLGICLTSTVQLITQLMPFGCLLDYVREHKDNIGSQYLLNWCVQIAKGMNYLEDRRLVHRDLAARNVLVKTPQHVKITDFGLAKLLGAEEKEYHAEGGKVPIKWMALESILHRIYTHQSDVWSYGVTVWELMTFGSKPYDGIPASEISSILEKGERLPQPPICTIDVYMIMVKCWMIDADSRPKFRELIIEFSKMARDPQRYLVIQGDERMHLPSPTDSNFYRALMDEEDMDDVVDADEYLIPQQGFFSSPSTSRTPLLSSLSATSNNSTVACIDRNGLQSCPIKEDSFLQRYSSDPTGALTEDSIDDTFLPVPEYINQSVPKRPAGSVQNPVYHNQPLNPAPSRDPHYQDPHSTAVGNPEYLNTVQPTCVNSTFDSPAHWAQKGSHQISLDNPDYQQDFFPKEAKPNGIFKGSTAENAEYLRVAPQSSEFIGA

Row | SMILES | DC50 (A431 (EGFR_WT)) [nM] | DC50 [1] [nM] | DC50 [2] [nM] | GI50 (A431) [nM] | GI50 (BaF3_DTC) [nM] | GI50 (BaF3_ASV) [nM]
1 | CCc1cc(Nc2ncc(Br)c(Nc3ccc4nccnc4c3NS(C)(=O)=O)n2)c(OC)cc1N1CCC(N2CCN(CCc3cc(F)c(C4CCC(=O)NC4=O)c(F)c3)CC2)CC1 (stereo not drawn) [Compound 71, N-(6-((5-bromo-2-((4-(4-(4-(4-(2,6-dioxopiperidin-3-yl)-3,5~difluorophenethyl)piperazin-1-yl)piperidin-1-yl)-5-ethyl-2-methoxyphenyl)amino)pyrimidin-4-yl)amino)quinoxalin-5-yl)methanesulfonamide] | > 1000 | 3.51 | 55.1 | > 3000 | 5.41 | 131
2 | CCc1cc(Nc2ncc(Br)c(Nc3ccc4nccnc4c3NS(C)(=O)=O)n2)c(OC)cc1N1CCC(CN2CCC3(CC2)CN(c2ccc4c(c2)CN(C2CCC(=O)NC2=O)C4=O)C3)CC1 (stereo not drawn) [Compound 56, N-(6-((5-bromo-2-((4-(4-((2-(2-(2,6-dioxopiperidin-3-yl)-1~oxoisoindolin-5-yl)-2,7-diazaspiro[3.5]nonan-7-yl)methyl)piperidin-1-yl)-5-ethyl-2-methoxyphenyl)amino)pyrimidin-4-yl)amino)quinoxalin-5-yl)methanesulfonamide] | – | 9.32 | 18 | > 1000 | 6.08 | 37.2
3 | CCc1cc(Nc2ncc(Br)c(Nc3ccc4nccnc4c3NS(C)(=O)=O)n2)c(OC)cc1N1CCC(N2CCC(CN3CCN(c4ccc5c(c4)CN([C@H]4CCC(=O)NC4=O)C5=O)CC3)CC2)CC1 [Compound 35, (S)-N-(6-((5-bromo-2-((4-(4-((4-(2-(2,6-dioxopiperidin-3-yl)-1-oxoisoindolin-5-yl)piperazin-1-yl)methyl) [1,4′-bipiperidin]-1′-yl)-5-ethyl-2-methoxyphenyl)amino)pyrimidin-4-yl)amino)quinoxalin-5-yl)methanesulfonamide] | – | 66 | 86.5 | > 1000 | 13.7 | 126
4 | CCc1cc(Nc2ncc(Br)c(Nc3ccc4nccnc4c3NS(C)(=O)=O)n2)c(OC)cc1N1CCC2(CC1)CN(CC1CCN(c3ccc4c(c3)CN(C3CCC(=O)NC3=O)C4=O)CC1)C2 (stereo not drawn) [Compound 40, N-(6-((5-bromo-2-((4-(2-((1-(2-(2,6-dioxopiperidin-3-yl)-1-oxoisoindolin-5-yl)piperidin-4-yl)methyl)-2,7-diazaspiro[3.5]nonan-7-yl)-5-ethyl-2-methoxyphenyl)amino)pyrimidin-4-yl)amino)quinoxalin-5-yl)methanesulfonamide] | – | 20.8 | 93.8 | 399 | 7.99 | 60.2
5 | CCc1cc(Nc2ncc(Br)c(Nc3ccc4nccnc4c3NS(C)(=O)=O)n2)c(OC)cc1N1CCC(N2CCN(CCNc3cccc4c3CN(C3CCC(=O)NC3=O)C4=O)CC2)CC1 (stereo not drawn) [Compound 91, N-(6-((5-bromo-2-((4-(4-(4-(2-((2-(2,6-dioxopiperidin-3-yl)-1-oxoisoindolin-4-yl)amino)ethyl)piperazin-1-yl)piperidin-1-yl)-5-ethyl-2-methoxyphenyl)amino)pyrimidin-4-yl)amino)quinoxalin-5-yl)methanesulfonamide] | – | 8.04 | 53.7 | 448 | 9.26 | 48.6
6 | CCc1cc(Nc2ncc(Br)c(Nc3ccc4nccnc4c3NS(C)(=O)=O)n2)c(OC)cc1N1CCC(N2CC(CN3CCN(c4ccc5c(c4)CN([C@H]4CCC(=O)NC4=O)C5=O)CC3)C2)CC1 [Compound 62, (S)-N-(6-((5-bromo-2-((4-(4-(3-((4-(2-(2,6-dioxopiperidin-3-yl)-1-oxoisoindolin-5-yl)piperazin-1-yl)methyl)azetidin-1-yl)piperidin-1-yl)-5-ethyl-2-methoxyphenyl)amino)pyrimidin-4-yl)amino)quinoxalin-5-yl)methanesulfonamide] | – | 5.18 | 75.2 | 383 | 19.3 | 130
7 | CCc1cc(Nc2ncc(Br)c(Nc3ccc4nccnc4c3NS(C)(=O)=O)n2)c(OC)cc1N1CCC(CN2CCC3(CC2)CCN(c2ccc4c(c2)CN(C2CCC(=O)NC2=O)C4=O)CC3)CC1 (stereo not drawn) [Compound 54, N-(6-((5-bromo-2-((4-(4-((9-(2-(2,6-dioxopiperidin-3-yl)-1-oxoisoindolin-5-yl)-3,9-diazaspiro[5.5]undecan-3-yl)methyl)piperidin-1-yl)-5-ethyl-2-methoxyphenyl)amino)pyrimidin-4-yl)amino)quinoxalin-5-yl)methanesulfonamide] | – | 13.3 | 33.5 | > 1000 | 4.77 | 31
8 | CCc1cc(Nc2ncc(Br)c(Nc3ccc4nccnc4c3NS(C)(=O)=O)n2)c(OC)cc1N1CCC2(CCN(CC3CCN(c4ccc5c(c4)CN(C4CCC(=O)NC4=O)C5=O)CC3)CC2)CC1 (stereo not drawn) [Compound 37, N-(6-((5-bromo-2-((4-(9-((1-(2-(2,6-dioxopiperidin-3-yl)-1-oxoisoindolin-5-yl)piperidin-4-yl)methyl)-3,9-diazaspiro[5.5]undecan-3-yl)-5-ethyl-2-methoxyphenyl)amino)pyrimidin-4-yl)amino)quinoxalin-5-yl)methanesulfonamide] | – | 8.6 | 102 | 382 | 7.94 | 55.7
9 | CCc1cc(Nc2ncc(Br)c(Nc3ccc4nccnc4c3NS(C)(=O)=O)n2)c(OC)cc1N1CCC(N2CCC(N3CCN(c4ccc5c(c4)CN([C@H]4CCC(=O)NC4=O)C5=O)CC3)CC2)CC1 [Compound 36, (S)-N-(6-((5-bromo-2-((4-(4-(4-(2-(2,6-dioxopiperidin-3-yl)-1-oxoisoindolin-5-yl)piperazin-1-yl)-[1,4′-bipiperidin]-1′-yl)-5-ethyl-2-methoxyphenyl)amino)pyrimidin-4-yl)amino)quinoxalin-5-yl)methanesulfonamide] | – | 1.27 | 102 | > 1000 | 9.12 | 77.6
10 | CCc1cc(Nc2ncc(Br)c(Nc3ccc4nccnc4c3NS(C)(=O)=O)n2)c(OC)cc1N1CCN(CC2(CN3CCN(c4ccc5c(c4)CN([C@H]4CCC(=O)NC4=O)C5=O)CC3)CC2)CC1 [Compound 44, (S)-N-(6-((5-bromo-2-((4-(4-((1-((4-(2-(2,6-dioxopiperidin-3-yl)-1-oxoisoindolin-5-yl)piperazin-1-yl)methyl)cyclopropyl)methyl)piperazin-1-yl)-5-ethyl-2-methoxyphenyl)amino)pyrimidin-4-yl)amino)quinoxalin-5-yl)methanesulfonamide] | – | 4.11 | > 1000 | > 1000 | 18.4 | 527

Source: US20250002473A1, “QUINOXALINE DERIVED SULFONAMIDES WITH EGFR DEGRADATION ACTIVITIES AND THEIR USES THEREOF” (Accutar Biotechnology Inc., priority 2023, published 2025)
